The numbers were not newly measured in patent US11534424B2, “Compounds and methods for treatment of primary biliary cholangitis” (Arena Pharmaceuticals, Inc., priority 2017, dated 2022), which cites them from elsewhere.

The test system of series [1] is collagen induced arthritis (CIA). The conditions noted are these: CIA rats.
Series [2] deals with experimental autoimmune encephalomyelitis (EAE). To be noted: murine EAE, relative to vehicle.
The conditions of series [3]: chronic administration.

Take `O=C(O)C[C@H]1CCc2c1[nH]c1ccc(OCc3ccc(C4CCCC4)c(C(F)(F)F)c3)cc21` [Compound 1, (R)-2-(7-(4-cyclopentyl-3-(trifluoromethyl)benzyloxy)-1,2,3,4-tetrahydrocyclopenta[b]indol-3-yl)acetic acid]: the “histological parameters in the knees and ankles” value in series [1] is recorded as “Improvement in histological parameters”. Moreover, the “disease course, therapeutic administration” value in series [2] (administered day 18 to day 37, similar to fingolimod) is recorded as “reverse the disease relative to vehicle”. Besides, the “onset and severity of disease, prophylactic administration” value in series [2] (up to day 25) was “prevented the onset and severity of disease relative to vehicle up to day 25”.

On to `CC(C)Oc1ncc(-c2nc(-c3cccc4c3ccn4CCCC(=O)O)no2)cc1Cl` [GSK2018682], for which the liver enzyme elevation result in series [3] was “liver enzyme elevation has been seen”.

Turning to `CCCCCCCCc1ccc(CCC(N)(CO)CO)cc1` [fingolimod], the liver enzyme elevation entry in series [3] is “liver enzyme elevation has been seen”.

Take `CC(C)Oc1ccc(-c2nc(-c3cccc4c3CC[C@@H]4NCCO)no2)cc1C#N` [ozanimod]: the liver enzyme elevation result in series [3] was “liver enzyme elevation has been seen”.

`CCC/N=C1\S/C(=C\c2ccc(OC[C@H](O)CO)c(Cl)c2)C(=O)N1c1ccccc1C` [ponesimod]: the liver enzyme elevation result in series [3] is given as “liver enzyme elevation has been seen”.

For the compound `CCc1cc(/C(C)=N/OCc2ccc(C3CCCCC3)c(C(F)(F)F)c2)ccc1CN1CC(C(=O)O)C1` [siponimod], the liver enzyme elevation result in series [3] is given as “liver enzyme elevation has been seen”.
